The values below are quoted from earlier work in patent US20210261621A1, “Preparation of Dilipid Polymixins and Use Thereof as Antimicrobial Adjuvants” (priority 2018, published 2021).

Positions of bridges follow the written chain, without caps; N, C: chain ends. Non-standard residues stand in square brackets, D forms with d. Residues, ends and D or L forms follow the SMILES beside them. Dab = NCC[C@H](N)C(=O)O

The conditions of the data set: healthy volunteers; single dose up to 800 mg or multiple dose up to 600 mg every 8 hours for 14 consecutive days; cited from earlier work.

In the case of `CC(=O)N[C@H](C(=O)N[C@H](CO)C(=O)N[C@H]1CCNC(=O)[C@H]([C@@H](C)O)NC(=O)[C@H](CCN)NC(=O)[C@H](CCN)NC(=O)[C@H](CC(C)C)NC(=O)[C@@H](Cc2ccccc2)NC(=O)[C@H](CCN)NC1=O)[C@@H](C)O` [SPR741] (Ac-T[dS][Dab][Dab][dF]L[Dab][Dab]T; lactam 3-C), the tolerability entry is on record as “well-tolerated”.
